Assay results as given in US20240099989A1, “AGENT FOR PREVENTING OR IMPROVING PERIPHERAL NEUROPATHY” (KINKI UNIVERSITY, priority 2021, published 2024).

Assays:
[1] = tested on: Peripheral Neuropathy in a Mouse Caused by Oxaliplatin; experiment: Von Frey test (0.16 g filament), peripheral neuropathy caused by oxaliplatin; assay type: in vivo, Balb/c mice; settings: 6 mg/kg oxaliplatin + 100 mg/kg orally daily from Day 6 (therapy)
Text: (§1) Six to seven-week-old female Balb/c mice were used for the tests as with Example 1. All the mice were acclimated for seven days after arrival. Then, the mice were grouped into the following four groups: a control group, a group receiving oxaliplatin, a group receiving D-threitol, and a group receiving oxaliplatin and D-threitol (a group receiving oxaliplatin+D-threitol). Each group consisted of five mice.
(§2) On Day 8 of acclimation, the mice in the group receiving oxaliplatin and the group receiving oxaliplatin+D-threitol were intraperitoneally administered with oxaliplatin at a dose of 6 mg/kg. This day was designated as the first day of the administration (Day 0). Thereafter, these mice were intraperitoneally administered with oxaliplatin at a daily dose of 6 mg/kg on Day 7 and Day 14.
The mice in the group receiving D-threitol and the group receiving oxaliplatin+D-threitol were orally administered with D-threitol at a dose of 5 mg/kg daily from Day 0.
The mice in the four groups described in (1) of the present example (Example 3) were placed in a cage, and the avoidance response frequency (score) was measured by pressing a filament with a bending force of 0.16 g against the back of the hind paw.
On Day 8 of acclimation, the mice in the group receiving oxaliplatin and the group receiving oxaliplatin+D-threitol were intraperitoneally administered with oxaliplatin at a dose of 6 mg/kg. This day was designated as the first day of the administration (Day 0). Thereafter, these mice were intraperitoneally administered with oxaliplatin at the same dose on Day 7 and Day 14 for a total of 3 doses.
The mice in the group receiving 100 mg/kg D-threitol were orally administered with D-threitol at a dose of 100 mg/kg daily from Day 0. The mice in the group receiving oxaliplatin+100 mg/kg D-threitol were orally administered with D-threitol at a dose of 100 mg/kg daily from Day 6 of administration.
For the mice in the four groups described in (1) of the present example (Example 4), the avoidance response frequency (score) was measured by pressing a filament with a bending force of 0.16 g against the back of the hind paw.
as §1, with “L-talitol,” for “D-threitol,”, “L-talitol” for “D-threitol”, “oxaliplatin+L-talitol).” for “oxaliplatin+D-threitol).”, “mice. […]” for “mice.”
The mice in the four groups described in (1) of the present example (Example 5) were placed in a cage, and the avoidance response frequency (score) was measured by pressing a filament with a bending force of 0.16 g against the back of the hind paw. […]

[2] = tested on: Peripheral Neuropathy in a Mouse Caused by Vincristine; assay type: in vivo, Balb/c mice; settings: 0.2 mg/kg vincristine + 100 mg/kg orally daily from Day 6 (therapy); from Day 12 onwards
Text: (§3) Six to seven-week-old female Balb/c mice were used for the tests. All the mice were acclimated for seven days after arrival. Then, the mice were grouped into the following four groups: a control group, a group receiving vincristine, a group receiving xylitol, and a group receiving vincristine and xylitol (a group receiving vincristine+xylitol). Each group consisted of five mice.
as §2, with “vincristine” for “oxaliplatin”, “vincristine+xylitol” for “oxaliplatin+D-threitol”, “0.2” for “6”, “Day 0” for “the first day”, “administration.” for “the administration (Day 0).”
The mice in the group receiving xylitol and the group receiving vincristine+xylitol were orally administered with xylitol at a dose of 5 mg/kg daily from Day 0.
The mice in the four groups described in (7) of the present example (Example 1) were placed in a cage, and the avoidance response frequency (score) was measured by pressing a filament with a bending force of 0.16 g against the back of the hind paw.
as §3, with “tests as with Example 1.” for “tests.”, “mice. […]” for “mice.”
For the mice in the four groups described in (9) of the present example (Example 2), the avoidance response frequency (score) was measured by pressing a filament with a bending force of 0.16 g against the back of the hind paw. […]
The mice in the four groups described in (7) of the present example (Example 3) were placed in a cage, and the avoidance response frequency (score) was measured by pressing a filament with a bending force of 0.16 g against the back of the hind paw. […]

OC[C@@H](O)[C@H](O)CO [D-threitol]
avoidance response score ([1]; from Day 15 onwards): maintained a score clearly lower than that of the group receiving oxaliplatin
avoidance response score [2]: maintained a score clearly lower than that of the group receiving vincristine

OC[C@H](O)[C@H](O)[C@H](O)[C@@H](O)CO [L-talitol]
avoidance response score ([1]; from Day 12 onwards): maintained a score clearly lower than that of the group receiving oxaliplatin
avoidance response score [2]: maintained a score clearly lower than that of the group receiving vincristine

OC[C@@H](O)[C@H](O)[C@@H](O)CO [xylitol]
avoidance response score ([1]; from Day 12 onwards): maintained a score clearly lower than that of the group receiving oxaliplatin
avoidance response score [2]: maintained a score clearly lower than that of the group receiving vincristine
